# Assay results from ChEMBL document CHEMBL4823243, “Synergistic induction of apoptosis in resistant head and neck carcinoma and leukemia by alkoxyamide-based histone deacetylase inhibitors” (Eur J Med Chem, 2021).
# Activity calls are given as the source filed them. The calls are words filed in the database; no cut-off is given here.
# Tests used:
# [1] = molecular target: T1, Histone deacetylase (Homo sapiens) (UniProt Q13547+O15379+Q9UBN7+Q92769+Q9UQL6+Q8WUI4+Q9BY41+Q96DB2+P56524+Q9UKV0+Q969S8); test: Inhibition of HDAC in human CAL-27 cells assessed as combination index at 0.1 uM measured in presence of 5 uM cDDP by MTT-based Chou-Talalay method; format: cell-based
# [2] = molecular target: T1, Histone deacetylase (Homo sapiens); test: Inhibition of HDAC in human CAL-27 cells assessed as combination index at 0.2 uM measured in presence of 5 uM cDDP by MTT-based Chou-Talalay method; format: cell-based
# [3] = molecular target: T1, Histone deacetylase (Homo sapiens); test: Inhibition of HDAC in human CAL-27 cells assessed as combination index at 0.25 uM measured in presence of 2 uM cDDP by MTT-based Chou-Talalay method; format: cell-based
# [4] = molecular target: T1, Histone deacetylase (Homo sapiens); test: Inhibition of HDAC in human Cal27CisR cells assessed as potentiation of cisplatin-induced cytotoxicity by measuring fold reduction in cisplatin IC50 at 0.3 to 0.5 uM pretreated for 48 hrs followed by cisplatin addition and measured after 72 hrs by MTT assay relative to cisplatin alone; format: cell-based; details: dose 0.3-0.5 µM, time 120.0 hrs
# Histone deacetylase [5] = test: Inhibition of HDAC in human Cal27CisR cells assessed as potentiation of cisplatin-induced cytotoxicity by measuring cisplatin IC50 at 0.3 to 0.5 uM pretreated for 48 hrs followed by cisplatin addition and measured after 72 hrs by MTT assay (reference value: 3.57 uM); format: cell-based
# Histone deacetylase [6] = test: Inhibition of HDAC in human CAL-27 cells assessed as potentiation of cisplatin-induced cytotoxicity by measuring cisplatin IC50 at 0.3 to 0.5 uM pretreated for 48 hrs followed by cisplatin addition and measured after 72 hrs by MTT assay (reference value: 3.57 uM); format: cell-based
# [7] = molecular target: T1, Histone deacetylase (Homo sapiens); test: Inhibition of HDAC in human CAL-27 cells assessed as combination index at 0.35 uM measured in presence of 5 uM cDDP by MTT-based Chou-Talalay method; format: cell-based
# [8] = molecular target: T1, Histone deacetylase (Homo sapiens); test: Inhibition of HDAC in human CAL-27 cells assessed as combination index at 0.4 uM measured in presence of 10 uM cDDP by MTT-based Chou-Talalay method; format: cell-based
# [9] = molecular target: T1, Histone deacetylase (Homo sapiens); test: Inhibition of HDAC in human Cal27CisR cells assessed as combination index at 0.3 uM measured in presence of 10 uM cDDP by MTT-based Chou-Talalay method; format: cell-based
# [10] = molecular target: T1, Histone deacetylase (Homo sapiens); test: Inhibition of HDAC in human Cal27CisR cells assessed as combination index at 0.2 uM measured in presence of 20 uM cDDP by MTT-based Chou-Talalay method; format: cell-based
# [11] = molecular target: T1, Histone deacetylase (Homo sapiens); test: Inhibition of HDAC in human Cal27CisR cells assessed as combination index at 0.1 uM measured in presence of 50 uM cDDP by MTT-based Chou-Talalay method; format: cell-based
# [12] = molecular target: T1, Histone deacetylase (Homo sapiens); test: Inhibition of HDAC in human Cal27CisR cells assessed as combination index at 0.2 uM measured in presence of 50 uM cDDP by MTT-based Chou-Talalay method; format: cell-based
# [13] = Inhibition of Class 1/2b HDAC in human HL-60 cells by HDAC-Glo assay; format: cell-based
# HL-60 [14] = test: Induction of apoptosis in human HL-60 cells assessed as caspase 3/7 activation incubated for 48 hrs by Caspase3/7 detection reagent based assay; format: functional, cell-based; details: HL-60, 48 h
# HL-60 [15] = test: Induction of apoptosis in human HL-60 cells assessed as caspase 3/7 activation at IC75 concentration incubated at 48 hrs; format: functional
# CAL-27 [16] = test: Induction of apoptosis in human CAL-27 cells assessed as caspase 3 activation at 2 uM in presence of pretreated for 24 hrs followed by cisplatin treatment and further incubated for 18 hrs by Caspase3/7 detection reagent based assay; format: functional, cell-based; details: time 42.0 hrs
# CAL-27 [17] = test: Induction of apoptosis in human CAL-27 cells assessed as caspase 7 activation at 2 uM in presence of pretreated for 24 hrs followed by cisplatin treatment and further incubated for 18 hrs by Caspase3/7 detection reagent based assay; format: functional, cell-based; details: time 42.0 hrs
# CAL-27 [18] = test: Induction of apoptosis in cisplatin resistant human CAL-27 cells assessed as caspase 3 activation at 2 uM pretreated for 24 hrs followed by cisplatin treatment and further incubated for 18 hrs by Caspase3/7 detection reagent based assay; format: functional, cell-based; details: time 42.0 hrs
# [19] = molecular target: T1, Histone deacetylase (Homo sapiens); test: Inhibition of HDAC in human CAL-27 cells assessed as potentiation of cisplatin-induced cytotoxicity by measuring fold reduction in cisplatin IC50 at 2 to 3 uM pretreated for 48 hrs followed by cisplatin addition and measured after 72 hrs by MTT assay relative to cisplatin alone; format: cell-based; details: dose 2-3 µM, time 120.0 hrs
# Histone deacetylase [20] = test: Inhibition of HDAC in human Cal27CisR cells assessed as potentiation of cisplatin-induced cytotoxicity by measuring cisplatin IC50 at 2 to 3 uM pretreated for 48 hrs followed by cisplatin addition and measured after 72 hrs by MTT assay (reference value: 3.57 uM); format: cell-based
# Histone deacetylase [21] = test: Inhibition of HDAC in human CAL-27 cells assessed as potentiation of cisplatin-induced cytotoxicity by measuring cisplatin IC50 at 2 to 3 uM pretreated for 48 hrs followed by cisplatin addition and measured after 72 hrs by MTT assay (reference value: 3.57 uM); format: cell-based
# [22] = molecular target: T1, Histone deacetylase (Homo sapiens); test: Inhibition of HDAC in human CAL-27 cells assessed as combination index at 1.5 uM measured in presence of 5 uM cDDP by MTT-based Chou-Talalay method; format: cell-based
# [23] = molecular target: T1, Histone deacetylase (Homo sapiens); test: Inhibition of HDAC in human CAL-27 cells assessed as combination index at 2 uM measured in presence of 5 uM cDDP by MTT-based Chou-Talalay method; format: cell-based
# [24] = molecular target: T1, Histone deacetylase (Homo sapiens); test: Inhibition of HDAC in human CAL-27 cells assessed as combination index at 0.5 uM measured in presence of 10 uM cDDP by MTT-based Chou-Talalay method; format: cell-based
# [25] = molecular target: T1, Histone deacetylase (Homo sapiens); test: Inhibition of HDAC in human CAL-27 cells assessed as combination index at 0.75 uM measured in presence of 10 uM cDDP by MTT-based Chou-Talalay method; format: cell-based
# [26] = molecular target: T1, Histone deacetylase (Homo sapiens); test: Inhibition of HDAC in human CAL-27 cells assessed as combination index at 1.25 uM measured in presence of 10 uM cDDP by MTT-based Chou-Talalay method; format: cell-based
# [27] = molecular target: T1, Histone deacetylase (Homo sapiens); test: Inhibition of HDAC in human CAL-27 cells assessed as combination index at 1.5 uM measured in presence of 10 uM cDDP by MTT-based Chou-Talalay method; format: cell-based
# [28] = molecular target: T1, Histone deacetylase (Homo sapiens); test: Inhibition of HDAC in human Cal27CisR cells assessed as combination index at 3 uM measured in presence of 10 uM cDDP by MTT-based Chou-Talalay method; format: cell-based
# [29] = molecular target: T1, Histone deacetylase (Homo sapiens); test: Inhibition of HDAC in human Cal27CisR cells assessed as combination index at 3 uM measured in presence of 20 uM cDDP by MTT-based Chou-Talalay method; format: cell-based
# [30] = molecular target: T1, Histone deacetylase (Homo sapiens); test: Inhibition of HDAC in human Cal27CisR cells assessed as combination index at 0.75 uM measured in presence of 50 uM cDDP by MTT-based Chou-Talalay method; format: cell-based
Structure (SMILES),CI [2],Ratio IC50 [4],IC50 (Histone deacetylase [5]),IC50 (Histone deacetylase [6]),CI [7],CI [8],CI [9],CI [10],CI [11],CI [12],IC50 [13],other results
O=C(CCCCCONC(=O)c1cc2ccccc2[nH]1)NO,0.09,7.36,6590 nM,1310 nM,0.05,0.02,1.17,0.43,0.36,0.47,,CI [1]: 0.53; CI [3]: 0.37
O=C(CCCCCONC(=O)c1ccc2ccccc2n1)NO,1.11,13.2,3670 nM,1120 nM,0.05,0.02,0.16,0.55,0.32,0.5,73.2 nM,IC50 (HL-60 [14]): 214 nM; IC75 (HL-60 [15]): 320 nM
O=C(CCCCCONC(=O)c1nccc2ccccc12)NO,,,,,,,,,,,85.1 nM,Activity (CAL-27 [16]): Active; Activity (CAL-27 [17]): Active; Activity (CAL-27 [18]): Active; Ratio IC50 [19]: 3.25; IC50 (Histone deacetylase [20]): 4840 nM; IC50 (Histone deacetylase [21]): 1100 nM; CI [22]: 0.37; CI [23]: 0.2; CI [24]: 0.58; CI [25]: 0.51; CI [26]: 0.3; CI [27]: 0.21; CI [28]: 0.24; CI [29]: 0.21; CI [30]: 0.56
